According to ChEMBL document CHEMBL4364281, “Design of wogonin-inspired selective cyclin-dependent kinase 9 (CDK9) inhibitors with potent in vitro and in vivo antitumor activity” (Eur J Med Chem, 2019):
pIC50: −log10 of the molar value. Converted amounts (≈) assume the structure as drawn. The source made the active and inactive calls. No cut-off for these calls is given here.

Columns and labels:
HepG2 = assay: cells; conditions: Homo sapiens, HepG2, 72 h
Description: Antiproliferative activity against human HepG2 cells assessed as reduction in cell viability after 72 hrs by MTT assay

CDK2/Cyclin A2 [1] = biological target: CDK2/Cyclin A2 (Homo sapiens, UniProt P24941)
Description: (§1) Inhibition of human CDK2/cyclin-A2 using H1 histone as substrate after 2 hrs by [gamma-33P]-ATP assay

HCT-116 = assay: cells; conditions: Homo sapiens, HCT-116, 72 h
Description: Antiproliferative activity against human HCT116 cells assessed as reduction in cell viability after 72 hrs by MTT assay

CDK9/cyclin T1 = CDK9/cyclin T1 (Homo sapiens, UniProt P50750)
Sequence of CDK9/cyclin T1 (O60563 whole entry): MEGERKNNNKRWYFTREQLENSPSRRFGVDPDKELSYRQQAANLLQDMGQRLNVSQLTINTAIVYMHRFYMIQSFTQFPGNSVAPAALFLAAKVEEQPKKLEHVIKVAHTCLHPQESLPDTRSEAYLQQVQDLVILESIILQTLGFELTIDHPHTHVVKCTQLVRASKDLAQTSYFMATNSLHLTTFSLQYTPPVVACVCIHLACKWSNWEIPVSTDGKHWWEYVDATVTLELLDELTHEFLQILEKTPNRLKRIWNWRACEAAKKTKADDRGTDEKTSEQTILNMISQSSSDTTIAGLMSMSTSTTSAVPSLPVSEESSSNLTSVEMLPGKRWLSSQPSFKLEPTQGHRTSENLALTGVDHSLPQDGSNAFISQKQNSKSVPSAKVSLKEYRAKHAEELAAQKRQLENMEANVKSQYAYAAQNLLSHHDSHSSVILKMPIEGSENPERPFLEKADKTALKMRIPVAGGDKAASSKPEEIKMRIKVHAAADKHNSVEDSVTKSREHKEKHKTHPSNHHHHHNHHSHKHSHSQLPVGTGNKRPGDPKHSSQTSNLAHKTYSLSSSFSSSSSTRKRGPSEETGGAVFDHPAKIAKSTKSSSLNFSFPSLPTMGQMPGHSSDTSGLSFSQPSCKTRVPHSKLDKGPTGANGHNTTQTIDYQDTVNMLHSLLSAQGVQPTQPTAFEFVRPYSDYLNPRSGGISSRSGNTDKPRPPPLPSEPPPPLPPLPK
Sequence of CDK9/cyclin T1 (P50750 whole entry): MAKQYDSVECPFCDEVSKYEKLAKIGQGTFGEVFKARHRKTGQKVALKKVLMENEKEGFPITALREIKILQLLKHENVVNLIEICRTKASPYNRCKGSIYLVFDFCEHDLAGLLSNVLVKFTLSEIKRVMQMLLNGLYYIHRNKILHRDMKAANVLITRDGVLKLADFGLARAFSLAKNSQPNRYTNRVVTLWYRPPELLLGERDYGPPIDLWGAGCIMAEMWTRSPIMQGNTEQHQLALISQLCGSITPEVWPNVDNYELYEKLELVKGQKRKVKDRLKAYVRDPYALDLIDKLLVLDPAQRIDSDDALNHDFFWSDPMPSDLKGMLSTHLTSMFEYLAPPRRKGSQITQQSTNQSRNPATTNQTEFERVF

A549 = assay: cells; conditions: Homo sapiens, A549, 72 h
Description: Antiproliferative activity against human A549 cells assessed as reduction in cell viability after 72 hrs by MTT assay

MV4-11 [2] = assay: cells; conditions: Homo sapiens, MV4-11, 72 h
Description: Antiproliferative activity against human MV4-11 cells assessed as reduction in cell viability after 72 hrs by MTT assay

physchem [3] = assay: physchem
Description: Intrinsic solubility of compound by potentiometric titration assay

physchem [4] = conditions: methanesulfonic acid buffer, pH 4.5
Description: Solubility of compound in methanesulfonic acid buffer at pH 4.5

physchem [5] = conditions: buffer, pH 7.4
Description: Hydrophobicity, log D of compound at pH 7.4

CDK2/Cyclin A2 [6] = biological target: CDK2/Cyclin A2 (Homo sapiens, UniProt P24941+P20248)
Description: as §1

MV4-11 [7] = assay: Antitumor activity against human MV4-11 cells xenografted in BALB/c mouse assessed as reduction in tumour growth at 5 mg/kg, iv administered every other day for 21 days; format: functional, organism-based

Compound `CN1CCN(c2ccc(-c3cc(=O)c4c(O)cc(O)c(OCc5ccco5)c4o3)cc2)CC1` has a pIC50 (HepG2) of 5.15.
Compound `Cc1n[nH]c(C)c1Oc1c(O)cc(O)c2c(=O)cc(-c3ccc(N4CCN(C)CC4)cc3)oc12` has a pIC50 (HepG2) of 5.20, a pIC50 (CDK2/Cyclin A2 [1]) of 6.08 and a pIC50 (HCT-116) of 5.48. The pIC50 (CDK9/cyclin T1) was 7.90, the pIC50 (A549) was 5.60 and the pIC50 (MV4-11 [2]) was 5.66.
Compound `COc1c(O)cc(O)c2c(=O)cc(-c3ccccc3Br)oc12` has a pIC50 (HepG2) of 4.47.
Compound `COc1c(O)cc(O)c2c(=O)cc(-c3ccc(N4CCN(C)CC4)cc3)oc12` has a pIC50 (HepG2) of 5.18.
`COc1c(O)cc(O)c2c(=O)cc(-c3cccc(N4CCN(C)CC4)c3)oc12` showed a pIC50 (HepG2) of 4.88.
In the case of `O=c1cc(-c2ccc(N3CCNCC3)cc2)oc2c(OCc3ccco3)c(O)cc(O)c12`, the pIC50 (HepG2) was 5.08.
`O=c1cc(-c2ccc(N3CCNCC3)cc2)oc2c(OC3CCCC3)c(O)cc(O)c12` showed a pIC50 (HepG2) of 5.28.
For `COc1c(O)cc(O)c2c(=O)cc(-c3cccc(N4CCOCC4)c3)oc12`, the pIC50 (HepG2) was under 4.00.
`COc1c(O)cc(O)c2c(=O)cc(-c3ccc(N4CCOCC4)cc3)oc12` showed a pIC50 (HepG2) of 4.11.
For `CN1CCC(Oc2c(O)cc(O)c3c(=O)cc(-c4ccc(N5CCN(C)CC5)cc4)oc23)CC1`, the pIC50 (HepG2) was 5.17.
With `COc1c(O)cc(O)c2c(=O)cc(-c3ccccc3Cl)oc12` the pIC50 (HepG2) was under 4.00.
For `Cc1n[nH]c(C)c1Oc1c(O)cc(O)c2c(=O)cc(-c3ccc(N4CCNCC4)cc3)oc12`, the pIC50 (HepG2) was 5.07, the solubility (physchem [3]) was 1 µg/mL (≈ 2.23 µM) and the pIC50 (CDK2/Cyclin A2 [1]) was 5.98. The pIC50 (HCT-116) was 5.32, the pIC50 (CDK9/cyclin T1) was 7.97 and the solubility (physchem [4]) was 30 µg/mL (≈ 66.9 µM). It also gave a pIC50 (A549) of 5.26, a logD (physchem [5]) of 2.91 and a pIC50 (MV4-11 [2]) of 5.36.
`COc1c(O)cc(O)c2c(=O)cc(-c3ccc([N+](=O)[O-])cc3)oc12` gave a pIC50 (HepG2) of under 4.00.
In the case of `CC(C)Oc1c(O)cc(O)c2c(=O)cc(-c3ccc(N4CCNCC4)cc3)oc12`, the pIC50 (HepG2) was 4.74, the pIC50 (HCT-116) was 5.47 and the pIC50 (CDK9/cyclin T1) was 7.03. The IC50 (CDK2/Cyclin A2 [6]) was “Not Active”, the pIC50 (A549) was 5.26 and the pIC50 (MV4-11 [2]) was 5.21.
Compound `COc1c(O)cc(O)c2c(=O)cc(-c3cccc(N4CCNCC4)c3)oc12` has a pIC50 (HepG2) of 5.00.
In the case of `COc1c(O)cc(O)c2c(=O)cc(-c3ccccc3C(F)(F)F)oc12`, the pIC50 (HepG2) was under 4.00.
`CN1CCN(c2ccc(-c3cc(=O)c4c(O)cc(O)c(OC5CCCC5)c4o3)cc2)CC1` gave a pIC50 (HepG2) of 4.80.
With `CC(C)Oc1c(O)cc(O)c2c(=O)cc(-c3ccc(N4CCN(C)CC4)cc3)oc12` the pIC50 (HepG2) was 4.83, the pIC50 (HCT-116) was 4.89 and the pIC50 (CDK9/cyclin T1) was 6.75. The IC50 (CDK2/Cyclin A2 [6]) was “Not Active”, the pIC50 (A549) was 5.39 and the pIC50 (MV4-11 [2]) was 5.20.
`COc1c(O)cc(O)c2c(=O)cc(-c3ccc(N4CCNCC4)cc3)oc12` showed a pIC50 (HepG2) of 4.75.
Compound `O=c1cc(-c2ccc(N3CCNCC3)cc2)oc2c(OC3CCCCC3)c(O)cc(O)c12` has a pIC50 (HepG2) of 4.64.
Compound `COc1c(O)cc(O)c2c(=O)cc(-c3ccc(N4CCCC4)cc3)oc12` has a pIC50 (HepG2) of under 4.00.
Work on `COc1c(O)cc(O)c2c(=O)cc(-c3cccc(Br)c3)oc12` yielded a pIC50 (HepG2) of 4.42.
With `CN1CCN(c2ccc(-c3cc(=O)c4c(O)cc(O)c(Oc5c[nH][nH]c5=O)c4o3)cc2)CC1` the pIC50 (HepG2) was 5.09.
Compound `O=c1cc(-c2ccc(N3CCNCC3)cc2)oc2c(OC3CCNC3)c(O)cc(O)c12` (stereo not given) has a pIC50 (HepG2) of under 4.00.
`COc1c(O)cc(O)c2c(=O)cc(-c3cccc(C(F)(F)F)c3)oc12` gave a pIC50 (HepG2) of under 4.00.
With `COc1c(O)cc(O)c2c(=O)cc(-c3ccc(N4CCCNCC4)cc3)oc12` the pIC50 (HepG2) was 4.74.
`COc1c(O)cc(O)c2c(=O)cc(-c3cccc(N4CCCNCC4)c3)oc12` showed a pIC50 (HepG2) of 4.66.
For `CCN(CC)c1ccc(-c2cc(=O)c3c(O)cc(O)c(OC)c3o2)cc1`, the pIC50 (HepG2) was 5.19.
Work on `CN1CCN(c2ccc(-c3cc(=O)c4c(O)cc(O)c(OC5CCNC5)c4o3)cc2)CC1` (stereo not given) yielded a pIC50 (HepG2) of under 4.00.
Compound `CN1CCC(Oc2c(O)cc(O)c3c(=O)cc(-c4ccc(N5CCNCC5)cc4)oc23)CC1` has a pIC50 (HepG2) of 4.40.
For `COc1cccc2c1C(=O)c1c(O)c3c(c(O)c1C2=O)C[C@@](O)(C(=O)CO)C[C@@H]3O[C@H]1C[C@H](N)[C@H](O)[C@H](C)O1`, the inhibition (MV4-11 [7]) was “Active”.
`CN1CCN(c2ccc(-c3cc(=O)c4c(O)cc(O)c(OC5CCCCC5)c4o3)cc2)CC1` gave a pIC50 (HepG2) of 4.56.
